Key:
Type in all cases: cell-based
[1] = system: IR-induced senescent WI38 cells (IR-SC); assay: Viability of IR-induced senescent WI38 cells (IR-SC), 72 h, PI staining and flow cytometry; conditions: for EC50: Homo sapiens, WI-38, IR-induced senescent WI38 cells, 72 hours, viable (PI-) cells as percentage of vehicle control; for Ratio NSC/SC: ratio of WI38 EC50 in NSC to EC50 in IR-SC
Protocol: (§1) Normal WI38 (NSC) and IR-induced senescent WI38 cells (IR-SC) were incubated with vehicle or increasing concentrations of compounds of Formula (I) or Formula (II) for 72 hours. The cells were digested with 0.25% trypsin and 1 mM EDTA, and harvested in PBS containing 2% FBS. After incubation with propidium iodide (PI, 100 ng/ml) in PBS at room temperature for 1 minute, cells were centrifuged at 1,200 rpm for 6 minutes to remove PI and then resuspended in PBS containing 2% FBS for analysis using a flow cytometer. Viable cells (PI-cells) were analyzed by flow cytometry at a constant flow rate to count the number of cells and calculated as a percentage of control cells treated with vehicle. Table 1 depicts the EC50 values of the compounds of Formula (I) and compounds of Formula (II) against normal WI38 and IR-induced senescent WI38.

Bcl-xL = target: T1, Bcl-xL (Homo sapiens, UniProt Q07817); assay: Protein degradation assay (Western blot) in IR-SC WI38 cells; conditions: increasing concentrations for 18 hours (FIG. 3A); fixed concentration for increasing times (FIG. 3B)
T1 construct: endogenous in cells; host or cells: WI38 cells (normal NC-WI38 and ionizing-radiation-induced senescent IR-SC WI38)
T1 sequence (Q07817 whole entry): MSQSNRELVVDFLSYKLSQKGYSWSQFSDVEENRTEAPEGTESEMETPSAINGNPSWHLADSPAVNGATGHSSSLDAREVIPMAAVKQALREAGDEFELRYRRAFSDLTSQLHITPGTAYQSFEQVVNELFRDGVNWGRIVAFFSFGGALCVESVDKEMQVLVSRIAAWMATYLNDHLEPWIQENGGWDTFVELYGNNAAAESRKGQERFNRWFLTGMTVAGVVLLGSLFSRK
Protocol: IR-SC WI38 cells were incubated with vehicle or increasing concentrations of XZ-14439 for 18 hours at increasing […] (FIG. 3A) and at a fixed concentration of XZ-14439 for increasing times (FIG. […]). The cells were digested with 0.25% trypsin and 1 mM EDTA, and harvested in RIPA lysis buffer with 1% Phosphatase Inhibitor Cocktail 3 and 1% Protease Inhibitor Cocktail. An equal amount of protein (15-30 μg/lane) from each cell extract was resolved on a 12% SDS-PAGE gel. Proteins were blotted onto a NOVEX PVDF membrane by electrophoresis. The membranes were blocked with TBS-T blocking buffer (5% nonfat milk in 25 mM Tris-HCL, pH 7.4; 3 mM KCl; […] NaCl; and 0.05% Tween) and probed with primary antibodies (at a predetermined optimal concentration) overnight at 4° C. or for 1 hour at room temperature. After extensive washing with TBS-T, the membranes were incubated with an appropriate peroxidase-conjugated secondary antibody for 1 hour at room temperature. After three washes with TBS-T, the proteins of interest were detected with ECL Western Blotting Detection Reagents and recorded with autoradiography (Pierce Biotech, Rockford, Ill., USA). The primary antibody Bcl-x (#2762), Bcl-2 antibody (#2872S) and β-actin (13E5, #4970) were purchased from Cell Signaling.
IR-SC WI38 (FIG. 4A) and RS4; 11 (FIG. 4B) cells were incubated with vehicle or increasing concentrations of compounds of Formula (I) or Formula (II) for 6 or 16 hours, at 1 μM (FIG. 4A) and 100 nm (FIG. 4B), respectively. The cells were harvested in RIPA lysis buffer with 1% Phosphatase Inhibitor Cocktail 3 and 1% Protease Inhibitor Cocktail. An equal amount of protein (15-30 μg/lane) from each cell extract was resolved on a 12% SDS-PAGE gel. Proteins were blotted onto a NOVEX PVDF membrane by electrophoresis. The membranes were blocked with TBS-T blocking buffer (5% nonfat milk in 25 mM Tris-HCL, pH 7.4; 3 mM KCl; 140 mM NaCl; and 0.05% Tween) and probed with primary antibodies (at a predetermined optimal concentration) overnight at 4° C. or for 1 hour at room temperature. After extensive washing with TBS-T, the membranes were incubated with an appropriate peroxidase-conjugated secondary antibody (Jackson ImmunoResearch Europe, Suffolk, UK) for 1 hour at room temperature. After three washes with TBS-T, the proteins of interest were detected with ECL Western Blotting Detection Reagents and recorded with autoradiography. The primary antibody Bcl-xl (#2762), Bcl-2 antibody (#2872S), Bcl-w (#2724S), Mcl-1 (#5453s) and β-actin (13E5, #4970) were purchased from Cell Signaling.

RS4; 11 cancer cells = assay: Cancer cell viability by MTS, 72 h, RS4;11; conditions: Homo sapiens, RS4;11 cells
Protocol: (§2) RS4; 11 and NCI-H146 cancer cells were incubated with vehicle or increasing concentrations of compounds of Formula (I) and Formula (II). At 72 hours post-treatment cell viability was measured by MTS and EC50 was calculated as a percentage of control cells treated with vehicle. Table 1 depicts the EC50 values of compounds of Formula (I) and Formula (II) against RS4; 11 and NCI-H146.

Normal WI38 (NSC) = assay: Viability of normal WI38 cells (NSC), 72 h, PI staining and flow cytometry; conditions: Homo sapiens, WI-38, viable (PI-) cells as percentage of vehicle control
Protocol: as §1

NCI-H146 cancer cells = assay: Cancer cell viability by MTS, 72 h, NCI-H146; conditions: Homo sapiens
Protocol: as §2

| Structure (SMILES) | EC50 [1] | Ratio NSC/SC [1] | Bcl-xL depletion in IR-SC WI38 cells, dose and time dependence (Bcl-xL) | EC50 (RS4; 11 cancer cells) | EC50 (Normal WI38 (NSC)) | EC50 (NCI-H146 cancer cells) |
| --- | --- | --- | --- | --- | --- | --- |
| CC1(C)CCC(c2ccc(Cl)cc2)=C(CN2CCN(c3ccc(C(=O)NS(=O)(=O)c4ccc(N[C@H](CCN5CCN(C(=O)CCCn6cc(COCCOCCOCCNc7cccc8c7C(=O)N(C7CCC(=O)NC7=O)C8=O)nn6)CC5)CSc5ccccc5)c(S(=O)(=O)C(F)(F)F)c4)cc3)CC2)C1 (stereo partly drawn) [XZ-14439, 4-(4-((4′-chloro-4,4-dimethyl-3,4,5,6-tetrahydro-[1,1′-biphenyl]-2-yl)methyl)piperazin-1-yl)-N-((4-(((2R)-4-(4-(4-(4-((2-(2-(2-((2-(2,6-dioxopiperidin-1,3-yl)-1,3-dioxoisoindolin-4-yl)amino)ethoxy)ethoxy)ethoxy)methyl)-1H-1,2,3-triazol-1-yl)butanoyl)piperazin-1-yl)-1-(phenylthio)butan-2-yl)amino)-3-((trifluoromethyl)sulfonyl)phenyl)sulfonyl)benzamide] | 0.87 µM | >20.88 | depletes Bcl-xL in IR-SC WI38 cells in both a dose dependent (FIG. 3A) and time dependent (FIG. 3B) manner | 0.0844 µM | > 20 µM | 0.0696 µM |
| CC1(C)CCC(c2ccc(Cl)cc2)=C(CN2CCN(c3ccc(C(=O)NS(=O)(=O)c4ccc(N[C@H](CCN5CCN(C(=O)NCCOCCOCCNc6cccc7c6C(=O)N(C6CCC(=O)NC6=O)C7=O)CC5)CSc5ccccc5)c(S(=O)(=O)C(F)(F)F)c4)cc3)CC2)C1 (stereo partly drawn) [XZ-14509, 4-((R)-3-(4-(N-(4-(4-((2-(4-chlorophenyl)-5,5-dimethylcyclohex-1-enyl)methyl)piperazin-1-yl)benzoyl)sulfamoyl)-2-(trifluoromethylsulfonyl)phenylamino)-4-(phenylthio)butyl)-N-(2-(2-(2-(2-(2,6-dioxopiperidin-3-yl)-1,3-dioxoisoindolin-4-ylamino)ethoxy)ethoxy)ethyl)piperazine-1-carboxamide] | 0.226 µM | >44.22 |  | 0.09 µM | > 10 µM | 0.065 µM |
| CC1(C)CCC(c2ccc(Cl)cc2)=C(CN2CCN(c3ccc(C(=O)NS(=O)(=O)c4ccc(N[C@H](CCN5CCN(C(=O)COCCOCCOCCNc6cccc7c6C(=O)N(C6CCC(=O)NC6=O)C7=O)CC5)CSc5ccccc5)c(S(=O)(=O)C(F)(F)F)c4)cc3)CC2)C1 (some centres unmarked) [XZ-14510] | 0.177 µM | >56 |  | 0.22 µM | > 10 µM | 0.112 µM |
| CC1(C)CCC(c2ccc(Cl)cc2)=C(CN2CCN(c3ccc(C(=O)NS(=O)(=O)c4ccc(N[C@H](CCN5CCN(C(=O)COCCOCCNc6cccc7c6C(=O)N(C6CCC(=O)NC6=O)C7=O)CC5)CSc5ccccc5)c(S(=O)(=O)C(F)(F)F)c4)cc3)CC2)C1 (some centres unmarked) [XZ-14515] | 0.158 µM | >63.27 |  | 0.173 µM | > 10 µM | 0.0792 µM |
| CC1(C)CCC(c2ccc(Cl)cc2)=C(CN2CCN(c3ccc(C(=O)NS(=O)(=O)c4ccc(N[C@H](CCN5CCN(C(=S)NCCOCCOCCNc6cccc7c6C(=O)N(C6CCC(=O)NC6=O)C7=O)CC5)CSc5ccccc5)c(S(=O)(=O)C(F)(F)F)c4)cc3)CC2)C1 (stereo partly drawn) [XZ-14516, 4-(4-((2-(4-chlorophenyl)-5,5-dimethylcyclohex-1-enyl)methyl)piperazin-1-yl)-N-(4-((2R)-4-(4-(2-(2-(2-(2-(2,6-dioxopiperidin-3-yl)-1,3-dioxoisoindolin-4-ylamino)ethoxy)ethoxy)ethylcarbamothioyl)piperazin-1-yl)-1-(phenylthio)butan-2-ylamino)-3-(trifluoromethylsulfonyl)phenylsulfonyl)benzamide] | 0.092 µM | >109 |  | 1.09 µM | > 10 µM | 0.517 µM |
| CC1(C)CCC(CN2CCN(c3ccc(C(=O)NS(=O)(=O)c4ccc(NCC5CCN(C(=O)COCCOCCOCCNc6cccc7c6C(=O)N(C6CCC(=O)NC6=O)C7=O)CC5)c([N+](=O)[O-])c4)c(Oc4cnc5[nH]ccc5c4)c3)CC2)=C(c2ccc(Cl)cc2)C1 (centres unmarked) [XZ-14522] | > 10 µM |  |  | 0.047 µM | > 10 µM | 1.1 µM |
| CC1(C)CCC(CN2CCN(c3ccc(C(=O)NS(=O)(=O)c4ccc(NCC5CCN(C(=O)CCCn6cc(COCCOCCOCCNc7cccc8c7C(=O)N(C7CCC(=O)NC7=O)C8=O)nn6)CC5)c([N+](=O)[O-])c4)c(Oc4cnc5[nH]ccc5c4)c3)CC2)=C(c2ccc(Cl)cc2)C1 (centres unmarked) [XZ-14523, 2-((1H-pyrrolo[2,3-b]pyridin-5-yl)oxy)-4-(4-((4′-chloro-5,5-dimethyl-3,4,5,6-tetrahydro-[1,1′-biphenyl]-2-yl)methyl)piperazin-1-yl)-N-((4-(((1-(4-(4-((2-(2-(2-((2-(2,6-dioxopiperidin-3-yl)-1,3-dioxoisoindolin-4-yl)amino)ethoxy)ethoxy)ethoxy)methyl)-1H-1,2,3-triazol-1-yl)butanoyl)piperidin-4-yl)methyl)amino)-3-nitrophenyl)sulfonyl)benzamide] | > 10 µM |  |  | 0.161 µM | > 10 µM | 1.26 µM |
| Cc1ncsc1-c1ccc(CNC(=O)[C@@H]2C[C@@H](O)CN2C(=O)[C@@H](NC(=O)CCC(=O)NCCOCCOCCNC(=O)N2CCC(CNc3ccc(S(=O)(=O)NC(=O)c4ccc(N5CCN(CC6=C(c7ccc(Cl)cc7)CC(C)(C)CC6)CC5)cc4Oc4cnc5[nH]ccc5c4)cc3[N+](=O)[O-])CC2)C(C)(C)C)cc1 [XZ-14528, N1-(2-(2-(2-(4-(((4-N-(2-((1H-pyrrolo[2,3-b]pyridin-5-yl)oxy)-4-(4-((4′-chloro-5,5-dimethyl-3,4,5,6-tetrahydro-(1,1′-biphenyl-2-yl)methyl)piperazin-1-yl)benzoyl)sulfamoyl)-2-nitrophenyl)amino)methyl)piperidine-1-carboxamido)ethoxy)ethoxy)ethyl)-N4-((S)-1-((2S,4R)-4-hydroxy-2-((4-(4-methylthiazol-5-yl)benzyl)carbamoyl)pyrrolidin-1-yl)-3,3-dimethyl-1-oxobutan-2-yl)succinamide] | > 10 µM |  |  | 0.397 µM | > 10 µM | > 2 µM |
| Cc1ncsc1-c1ccc(CNC(=O)[C@@H]2C[C@@H](O)CN2C(=O)[C@@H](NC(=O)CCC(=O)NCCOCCOCCNC(=O)N2CCN(CC[C@H](CSc3ccccc3)Nc3ccc(S(=O)(=O)NC(=O)c4ccc(N5CCN(CC6=C(c7ccc(Cl)cc7)CCC(C)(C)C6)CC5)cc4)cc3S(=O)(=O)C(F)(F)F)CC2)C(C)(C)C)cc1 [XZ-14529] | > 10 µM |  |  | 0.823 µM | > 10 µM | > 2 µM |
| CC1(C)CCC(c2ccc(Cl)cc2)=C(CN2CCN(c3ccc(C(=O)NS(=O)(=O)c4ccc(N[C@H](CCN5CCN(C(=O)COCCOCCOCCOCCNc6cccc7c6C(=O)N(C6CCC(=O)NC6=O)C7=O)CC5)CSc5ccccc5)c(S(=O)(=O)C(F)(F)F)c4)cc3)CC2)C1 (some centres unmarked) [XZ-14540] | 1.13 µM | 8.86 |  | 0.0824 µM | > 10 µM | 0.0762 µM |
